Experimental data from the NIST ThermoML archive (doi:10.1016/j.tca.2014.10.002).
“And” between values parts separate entries of the source, which are not always exact repeats. Equal entries are not always repeated. Numbers after ± are expanded uncertainties.

How the values were obtained:
[1] = Molar enthalpy of transition or fusion; details: DSC
[2] = molar heat capacity at constant pressure; details: 101.33 kPa
[3] = DTA

In the case of `OC1CCCCCCC1` [cyclooctanol], the “Molar enthalpy of transition or fusion” value ([1]; Crystal 1) is reported as 0.457 ± 0.0765 kcal/mol, the “Molar enthalpy of transition or fusion” value ([1]; Crystal 2) is reported as 0.507 ± 0.0765 kcal/mol and the “molar heat capacity at constant pressure” value ([2]; 261.1 K, Crystal 1, Large sample (1 g) DSC) is reported as 235.9 ± 4.1 J/K/mol. For the same compound, the “molar heat capacity at constant pressure” value ([2]; 261.23 K, Crystal 1, Large sample (1 g) DSC) was 236.1 ± 4.1 J/K/mol, the “molar heat capacity at constant pressure” value ([2]; 264 K, Crystal 1, Large sample (1 g) DSC) was 238.7 ± 4.1 J/K/mol and 238.8 ± 4.1 J/K/mol and the “molar heat capacity at constant pressure” value ([2]; 267 K, Crystal 1, Large sample (1 g) DSC) was 241.8 ± 4.2 J/K/mol and 241.9 ± 4.2 J/K/mol. For the same compound, the “molar heat capacity at constant pressure” value ([2]; 270 K, Crystal 1, Large sample (1 g) DSC) was 245.1 ± 4.2 J/K/mol and 245.3 ± 4.3 J/K/mol, the “molar heat capacity at constant pressure” value ([2]; 273 K, Crystal 1, Large sample (1 g) DSC) was 248.9 ± 4.3 J/K/mol and 249 ± 4.3 J/K/mol and the “molar heat capacity at constant pressure” value ([2]; 276 K, Crystal 1, Large sample (1 g) DSC) was 252.7 ± 4.4 J/K/mol and 252.8 ± 4.4 J/K/mol. The “molar heat capacity at constant pressure” value ([2]; 279 K, Crystal 1, Large sample (1 g) DSC) was 256.9 ± 4.5 J/K/mol, the “molar heat capacity at constant pressure” value ([2]; 282 K, Crystal 1, Large sample (1 g) DSC) was 261.4 ± 4.5 J/K/mol and 261.5 ± 4.5 J/K/mol and the “molar heat capacity at constant pressure” value ([2]; 283.88 K, Crystal 1, Large sample (1 g) DSC) was 264.3 ± 4.6 J/K/mol. For the same compound, the “molar heat capacity at constant pressure” value ([2]; 284.25 K, Crystal 1, Large sample (1 g) DSC) was 265.2 ± 4.6 J/K/mol, the “molar heat capacity at constant pressure” value ([2]; 301.94 K, Liquid, Large sample (1 g) DSC) was 295.6 ± 5.1 J/K/mol and the “molar heat capacity at constant pressure” value ([2]; 302.06 K, Liquid, Large sample (1 g) DSC) was 295.8 ± 5.1 J/K/mol. For the same compound, the “molar heat capacity at constant pressure” value ([2]; 305 K, Liquid, Large sample (1 g) DSC) was 299.1 ± 5.2 J/K/mol, the “molar heat capacity at constant pressure” value ([2]; 310 K, Liquid, Large sample (1 g) DSC) was 304.6 ± 5.3 J/K/mol and the “molar heat capacity at constant pressure” value ([2]; 315 K, Liquid, Large sample (1 g) DSC) was 310.1 ± 5.4 J/K/mol and 310 ± 5.4 J/K/mol. The “molar heat capacity at constant pressure” value ([2]; 318.15 K, Liquid, Small sample (50 mg) DSC) was 313.1 ± 5.4 J/K/mol, the “molar heat capacity at constant pressure” value ([2]; 320 K, Liquid, Large sample (1 g) DSC) was 315.1 ± 5.5 J/K/mol and the “molar heat capacity at constant pressure” value ([2]; 323.14 K, Liquid, Small sample (50 mg) DSC) was 318.2 ± 5.5 J/K/mol. The “molar heat capacity at constant pressure” value ([2]; 325 K, Liquid, Large sample (1 g) DSC) was 320.2 ± 5.5 J/K/mol, the “molar heat capacity at constant pressure” value ([2]; 328.14 K, Liquid, Small sample (50 mg) DSC) was 323.1 ± 5.6 J/K/mol and the “molar heat capacity at constant pressure” value ([2]; 330 K, Liquid, Large sample (1 g) DSC) was 325 ± 5.6 J/K/mol and 324.9 ± 5.6 J/K/mol. For the same compound, the “molar heat capacity at constant pressure” value ([2]; 333.14 K, Liquid, Small sample (50 mg) DSC) was 327.7 ± 5.7 J/K/mol, the “molar heat capacity at constant pressure” value ([2]; 335 K, Liquid, Large sample (1 g) DSC) was 329.4 ± 5.7 J/K/mol and 329.3 ± 5.7 J/K/mol and the “molar heat capacity at constant pressure” value ([2]; 338.14 K, Liquid, Small sample (50 mg) DSC) was 332.6 ± 5.8 J/K/mol. The “molar heat capacity at constant pressure” value ([2]; 340 K, Liquid, Large sample (1 g) DSC) was 333.7 ± 5.8 J/K/mol, the “molar heat capacity at constant pressure” value ([2]; 343.14 K, Liquid, Small sample (50 mg) DSC) was 337 ± 5.8 J/K/mol and the “molar heat capacity at constant pressure” value ([2]; 345 K, Liquid, Large sample (1 g) DSC) was 338.4 ± 5.9 J/K/mol and 338.3 ± 5.9 J/K/mol. For the same compound, the “molar heat capacity at constant pressure” value ([2]; 348.13 K, Liquid, Small sample (50 mg) DSC) was 341.1 ± 5.9 J/K/mol, the “molar heat capacity at constant pressure” value ([2]; 350 K, Liquid, Large sample (1 g) DSC) was 343 ± 5.9 J/K/mol and 342.9 ± 5.9 J/K/mol and the “molar heat capacity at constant pressure” value ([2]; 353.13 K, Liquid, Small sample (50 mg) DSC) was 345.4 ± 12 J/K/mol. For the same compound, the “molar heat capacity at constant pressure” value ([2]; 355 K, Liquid, Large sample (1 g) DSC) was 347.1 ± 6 J/K/mol and 347 ± 6 J/K/mol, the “molar heat capacity at constant pressure” value ([2]; 357.87 K, Liquid, Large sample (1 g) DSC) was 349.1 ± 6 J/K/mol and the “molar heat capacity at constant pressure” value ([2]; 357.94 K, Liquid, Large sample (1 g) DSC) was 349.1 ± 6 J/K/mol. The “molar heat capacity at constant pressure” value ([2]; 358.13 K, Liquid, Small sample (50 mg) DSC) was 349.5 ± 12 J/K/mol, the “molar heat capacity at constant pressure” value ([2]; 363.12 K, Liquid, Small sample (50 mg) DSC) was 353.5 ± 12 J/K/mol and the “molar heat capacity at constant pressure” value ([2]; 366.11 K, Liquid, Small sample (50 mg) DSC) was 355.8 ± 12 J/K/mol. The “molar heat capacity at constant pressure” value ([2]; 369.12 K, Liquid, Small sample (50 mg) DSC) was 357.9 ± 12 J/K/mol, the “molar heat capacity at constant pressure” value ([2]; 372.13 K, Liquid, Small sample (50 mg) DSC) was 359.6 ± 12 J/K/mol and the “molar heat capacity at constant pressure” value ([2]; 375.14 K, Liquid, Small sample (50 mg) DSC) was 361.4 ± 12 J/K/mol. The “molar heat capacity at constant pressure” value ([2]; 378.12 K, Liquid, Small sample (50 mg) DSC) was 363 ± 12 J/K/mol, the “molar heat capacity at constant pressure” value ([2]; 381.14 K, Liquid, Small sample (50 mg) DSC) was 364.4 ± 12 J/K/mol and the “molar heat capacity at constant pressure” value ([2]; 384.12 K, Liquid, Small sample (50 mg) DSC) was 365.8 ± 12 J/K/mol. The “molar heat capacity at constant pressure” value ([2]; 387.13 K, Liquid, Small sample (50 mg) DSC) was 366.9 ± 12 J/K/mol, the “molar heat capacity at constant pressure” value ([2]; 390.11 K, Liquid, Small sample (50 mg) DSC) was 367.8 ± 12 J/K/mol and the “molar heat capacity at constant pressure” value ([2]; 393.12 K, Liquid, Small sample (50 mg) DSC) was 368.7 ± 12 J/K/mol. For the same compound, the “molar heat capacity at constant pressure” value ([2]; 396.14 K, Liquid, Small sample (50 mg) DSC) was 369.4 ± 12 J/K/mol, the “molar heat capacity at constant pressure” value ([2]; 399.12 K, Liquid, Small sample (50 mg) DSC) was 370 ± 12 J/K/mol and the “molar heat capacity at constant pressure” value ([2]; 402.13 K, Liquid, Small sample (50 mg) DSC) was 371 ± 12 J/K/mol. The “molar heat capacity at constant pressure” value ([2]; 405.12 K, Liquid, Small sample (50 mg) DSC) was 371.6 ± 12 J/K/mol, the “molar heat capacity at constant pressure” value ([2]; 408.13 K, Liquid, Small sample (50 mg) DSC) was 371.9 ± 12 J/K/mol and the “molar heat capacity at constant pressure” value ([2]; 411.11 K, Liquid, Small sample (50 mg) DSC) was 372.3 ± 12 J/K/mol. For the same compound, the “molar heat capacity at constant pressure” value ([2]; 414.12 K, Liquid, Small sample (50 mg) DSC) was 372.6 ± 12 J/K/mol, the “molar heat capacity at constant pressure” value ([2]; 417.13 K, Liquid, Small sample (50 mg) DSC) was 372.9 ± 12 J/K/mol and the “molar heat capacity at constant pressure” value ([2]; 420.12 K, Liquid, Small sample (50 mg) DSC) was 373.1 ± 12 J/K/mol. The “molar heat capacity at constant pressure” value ([2]; 423.13 K, Liquid, Small sample (50 mg) DSC) was 373.2 ± 12 J/K/mol, the “molar heat capacity at constant pressure” value ([2]; 426.11 K, Liquid, Small sample (50 mg) DSC) was 373.2 ± 12 J/K/mol and the “molar heat capacity at constant pressure” value ([2]; 429.19 K, Liquid, Small sample (50 mg) DSC) was 373.2 ± 12 J/K/mol. The “molar heat capacity at constant pressure” value ([2]; 432.31 K, Liquid, Small sample (50 mg) DSC) was 373.2 ± 12 J/K/mol, the “molar heat capacity at constant pressure” value ([2]; 435.12 K, Liquid, Small sample (50 mg) DSC) was 373.2 ± 12 J/K/mol and the “molar heat capacity at constant pressure” value ([2]; 438.13 K, Liquid, Small sample (50 mg) DSC) was 373 ± 12 J/K/mol. For the same compound, the “molar heat capacity at constant pressure” value ([2]; 441.14 K, Liquid, Small sample (50 mg) DSC) was 372.8 ± 12 J/K/mol, the “molar heat capacity at constant pressure” value ([2]; 444.13 K, Liquid, Small sample (50 mg) DSC) was 372.8 ± 12 J/K/mol and the “molar heat capacity at constant pressure” value ([2]; 447.14 K, Liquid, Small sample (50 mg) DSC) was 372.7 ± 12 J/K/mol. For the same compound, the “molar heat capacity at constant pressure” value ([2]; 450.12 K, Liquid, Small sample (50 mg) DSC) was 372.5 ± 12 J/K/mol, the “molar heat capacity at constant pressure” value ([2]; 453.13 K, Liquid, Small sample (50 mg) DSC) was 372.6 ± 12 J/K/mol and the “molar heat capacity at constant pressure” value ([2]; 456.14 K, Liquid, Small sample (50 mg) DSC) was 372.6 ± 12 J/K/mol. The “molar heat capacity at constant pressure” value ([2]; 459.13 K, Liquid, Small sample (50 mg) DSC) was 372.6 ± 12 J/K/mol, the “molar heat capacity at constant pressure” value ([2]; 462.14 K, Liquid, Small sample (50 mg) DSC) was 373 ± 12 J/K/mol and the “molar heat capacity at constant pressure” value ([2]; 465.12 K, Liquid, Small sample (50 mg) DSC) was 373.5 ± 12 J/K/mol. For the same compound, the “molar heat capacity at constant pressure” value ([2]; 468.14 K, Liquid, Small sample (50 mg) DSC) was 374.1 ± 12 J/K/mol, the “molar heat capacity at constant pressure” value ([2]; 471.14 K, Liquid, Small sample (50 mg) DSC) was 374.6 ± 12 J/K/mol and the Triple point temperature ([3]; Crystal 1) was 296.78 ± 0.42 K. For the same compound, the Triple point temperature ([3]; Crystal 2) was 263.56 ± 0.39 K.
